In patent US20040235019A1, “Diagnostics and therapeutics for the gene expression signature of PPAR-gamma receptor ligand” (Agouron Pharmaceuticals, Inc., priority 2003, published 2004):

Columns and labels:
[1] = patients; personal communication (Heidi Camp, Pfizer Inc); cited from earlier work
3T3-L1 cells = assay: Gene profile of 3T3-L1 cells treated with Rosiglitazone after PPARγ1 antisense knockdown; format: cell-based, murine; settings: antisense 72 hours
Experimental: 3T3-L1 cells were treated for 72 hours with an antisense construct whose nucleic acid sequence was complementary to PPARγ1 and treated with Rosiglitazone. As a separate control, 3T3-L1 were cells treated with the antisense construct, but without Rosiglitazone. Gene expression levels were determined using Affymetix microarray analysis. Following the incubation, RNA was extracted from the cells using Trizol (Invitrogen) followed by cleanup using an RNeasy kit (Qiagen) including DNase I treatment. Probes from each of these cell populations were prepared by reverse transcription-polymerase chain reaction (RT-PCR) and subsequently biotin labeled by in vitro transcription using the BioArray High Yield RNA Transcript Labeling Kit (Enzo). The probes were then hybridized to U74Aver2 Affymetrix gene chips. The hybridization was conducted as follows The hybridization was for 16 hours at 45° C. and 60 RPM in a rotisserie box.

SMILES | incidence of edema clinically [1] | genes of Tables I and II also up- or down-regulated by Rosiglitazone in cells treated with PPARγ1 antisense nucleic acid (3T3-L1 cells)
Cc1oc(-c2ccccc2)nc1CCOc1ccc(C[C@H](Nc2ccccc2C(=O)c2ccccc2)C(=O)O)cc1 [Farglitazar] | most frequent incidence of edema clinically | –
CN(CCOc1ccc(CC2SC(=O)NC2=O)cc1)c1ccccn1 (centres unmarked) [Rosiglitazone] | – | 91%
